Assays:
Type in all cases: cell-based
caspase-3 = assay: Western blot, caspase-3 expression in HepG2 cells; details: 24 h, high concentration (sagittatoside A 49, icariside I 50, baohuoside I 32, icaritin 3.8 μg/mL), vs untreated cells
Procedure: (§1) To explore the mechanism of apoptosis induced by the hepatotoxic compounds, the expression of key proteins related to apoptosis, including Bax, Bcl-2, Caspase-3 and Caspase-9, was assessed by western blotting. HepG2 cells were treated with different concentrations of the hepatotoxic compounds for 24 h and collected with a cell scraper. The concentrations of sagittatoside A were set to 12.2, 24.5, and 49 μg/mL; those of icariside I were 12.5, 25, and 50 μg/mL; baohuoside I was used at 8, 16, and 32 μg/mL; and icaritin was tested at 0.9, 1.9 and 3.8 μg/mL. The cells were washed twice with PBS and lysed in total protein cell lysis buffer. Protein concentrations were determined using a BCA protein assay kit (Thermo Fisher Scientific, Waltham, MA, USA). Then, to destroy the 3-dimensional protein structure, the proteins in the loading buffer were heated at 95 °C for 5 min. An equal amount of protein from each sample was separated by SDS-PAGE on 10% SDS–polyacrylamide gels. After the protein was transferred to a polyvinylidene difluoride membrane (Millipore, Bedford, MA, USA), the membrane was incubated in blocking buffer (5% nonfat dairy milk in TBST) for 2 h and probed with various antibodies (1:1000) overnight at 4 °C. […] The changes in the protein expression levels are expressed as percentages relative to the levels measured in the corresponding control groups.

Bax/Bcl-2 = assay: Western blot, Bax/Bcl-2 ratio in HepG2 cells; details: 24 h, high concentration (sagittatoside A 49, icariside I 50, baohuoside I 32, icaritin 3.8 μg/mL), vs untreated cells
Procedure: as §1

HepG2 cells = assay: HepG2 cell apoptosis after incubation of the compound with human liver microsomes (metabolism mixture); details: mixture on HepG2 cells 24 h
Procedure: HepG2 cells were cultured in Roswell Park Memorial Institute (RPMI) 1640 medium (GIBCO, Grand Island, NY, USA) supplemented with 10% heat-inactivated fetal bovine serum (PAN Biotech GmbH, Aidenbach, Germany), 100 U/mL penicillin, and 100 μg/mL streptomycin. The cells were maintained in a humidified atmosphere with 5% CO2 at 37 °C. Upon reaching 90% confluence, the cells were prepared as single-cell suspensions at a density of 1 × 10^4 cells/mL by treatment with 0.25% trypsin with 0.02% EDTA and then dispensed into 12-well plates (Corning, NY, USA) with a total volume of 1.5 mL per well. After culturing for 24 h, the medium was discarded, and the cells were incubated with fresh medium or medium containing different hepatotoxic compounds at various concentrations for an additional 24 h. […] After treatment, the cells were collected for apoptosis analysis. To investigate the effects of the hepatotoxic compounds on HepG2 cell apoptosis, flow cytometry was performed with a FACSCalibur flow cytometer (BD Biosciences) using an Annexin V-FITC apoptosis detection kit. The cells were prepared according to the manufacturer’s instructions. Briefly, the collected cell pellets were washed three times by centrifugation at 2000 rpm and 4 °C for 5 min with PBS and resuspended in binding buffer. Then, the cells were incubated with Annexin V-FITC for 15 min, propidium iodide (PI) was added, and the cells were incubated for another 5 min. The whole labeling process was performed in the dark. After fluorescent labeling, the cell suspension was immediately analyzed by flow cytometry. Cells in the early phases of apoptosis can bind Annexin V-FITC but exclude PI, while cells in late apoptosis or those that are necrotic can be stained with Annexin V-FITC and PI simultaneously. The incubation mixtures were prepared following the instructions from the manufacturer of the metabolic stability kits and contained sagittatoside A, icariside I, baohuoside I, and icaritin, of which the final concentrations were 49, 50, 32 and 3.8 μg/mL. […]

| Compound | caspase-3 expression (caspase-3) | Bax/Bcl-2 ratio (Bax/Bcl-2) | apoptosis rate, metabolism mixture (HepG2 cells; 32 μg/mL incubated 30 min with human liver microsomes (phase I and II), insignificant) [%] | apoptosis rate, metabolism mixture (HepG2 cells; 50 μg/mL incubated 30 min with human liver microsomes (phase I and II), p < 0.05) [%] | apoptosis rate, metabolism mixture (HepG2 cells; 3.8 μg/mL incubated 30 min with human liver microsomes (phase I and II), p < 0.01) [%] |
| --- | --- | --- | --- | --- | --- |
| COc1ccc(-c2oc3c(CC=C(C)C)c(O)cc(O)c3c(=O)c2O[C@@H]2O[C@@H](C)[C@H](O)[C@@H](O)[C@H]2O)cc1 [baohuoside I] | significant increase | increased | 3.40 ± 0.19 | – | – |
| COc1ccc(-c2oc3c(CC=C(C)C)c(O[C@@H]4O[C@H](CO)[C@@H](O)[C@H](O)[C@H]4O)cc(O)c3c(=O)c2O)cc1 [icariside I] | – | – | – | 3.86 ± 0.22 | – |
| COc1ccc(-c2oc3c(CC=C(C)C)c(O)cc(O)c3c(=O)c2O)cc1 [icaritin] | significant increase | increased | – | – | 5.61 ± 0.83 |

Source: publication PMC10975178, “Evaluation on the Potential for Hepatotoxic Components from Herba Epimedii to Induce Apoptosis in HepG2 Cells and the Analysis of the Influence of Metabolism in Liver Microsomes” (Molecules, 2024)
